Data set [1] can be described thus: Solubility of the mesylate salt in buffered solutions (HPLC assay). Type of data set: physicochemical. The note with it: acetate buffer, pH 4.6, aqueous buffer, thermodynamic from solid. Here is the method: An investigation into the solubility of the mesylate salt of Example 1 in various buffering systems was carried out at ambient temperature and at 4° C. In a first set of experiments, the buffers selected were 200 mM succinate pH 5.5, citrate pH 5.5, and Tris/maleate pH 5.5, 6.5 and 7.5. A second set of buffers utilised included a 200 mM acetate pH 4.6, glycine/methanesulphonic acid pH 4.6 and glycine pH 5.5.
This buffer was prepared by dissolving 4.44 g sodium acetate in 200 ml water. A volume (50 ml) of this solution was titrated with 0.20 M acetic acid solution ([…] in 200 ml water) and made up to 200 ml with water. A 0.20 M acetate buffer solution of pH 4.6 was prepared.
With each pH and buffer system, two experiments were performed, one at ambient temperature and one at 4° C. In each experiment, to 4.0 ml buffer solution was added a nominal 220 mg of the mesylate salt and the solution mixture was stirred. The stirring was stopped after 3 hours, the solution filtered through a PVDF 0.22 μm membrane filter, diluted in sample diluent and assayed for mesylate salt content by HPLC. Throughout the experiments, the mesylate salt content of each sample was calculated using single point calibration each time.

Data set [2] can be described thus: Gravimetric Vapour Sorption (GVS) study. It counts as physicochemical. Here is the method:
(i) Gravimetric Vapour Sorption (GVS) studies were carried out to investigate the behaviour of the mesylate salt in conditions of varying humidity. The mesylate salt used in the studies was prepared from the hydrochloride salt (see Example 11) by the following method.
Samples of the mesylate salt produced by the method described above were run on a Hiden IGASorp moisture sorption analyser running CFRSorp software. The sample sizes were typically 10 mg. Moisture adsorption-desorption isotherms were performed as set out in the following table:
A double cycle was run using a sample of 12.92 mg of the mesylate salt. […] However, provided that the salt is not exposed to relative humidities of more than 80%, the water uptake is less than 2.6% w/w. Importantly, water which was taken up during the adsorption stage was lost during the desorption state indicating the uptake of water is a surface effect.

Counter-ions that a name gives are not always drawn. Like-named read-outs stand apart in the source and are kept apart here.

One may read the solubility as the dissolved amount per volume that the medium holds.

As for `O=C(NC1CCNCC1)c1n[nH]cc1NC(=O)c1c(Cl)cccc1Cl` [mesylate salt, 4-(2,6-dichlorobenzoylamino)-1H-pyrazole-3-carboxylic acid piperidin-4-ylamide methanesulphonate], the solubility at 3 h was 37.2 mg/mL in data set [1] (4 °C, acetate buffer 200 mM at 4° C., initial pH 4.6, final pH 4.6, read-out: [mesylate salt] solubility); 30.7 mg/mL in data set [1] (acetate buffer 200 mM at ambient temperature, initial pH 4.6, final pH 4.5, read-out: [Mesylate salt] solubility); ~35 mg/mL in data set [1] (acetic acid/sodium acetate buffer, solution pH approximately 4.6, read-out: solubility); 32 to 37 mg/mL in data set [1] (in acetate buffer, read-out: solubility of the mesylate salt). In data set [2] (not exposed to relative humidities of more than 80%), the “water uptake (GVS)” value is reported as “less than 2.6 % w/w”. Moreover, the “water picked up (GVS isotherm)” value in data set [2] (over the range 0% relative humidity to 90% relative humidity) is given as “approximately 4 % in weight”.
